The text below walks through data of patent US4983328A, “N-(4-(3-aminopropyl)aminobutyl)-2-(ω-gua nidino-fatty-acid-amido(-2-substituted-ethanamide, salt thereof, and process for preparation thereof” (Bristol-Myers Company, priority 1981, dated 1991).

Structures are written as SMILES. Converted amounts (≈) assume the structure as drawn.

The test system of data set [1] is mouse leukemia L-1210 cells. Nature of the data set: growth inhibitory activity to cancer cells in vitro (L-1210, 48 hours). The format is cell-based. The note with it: for inhibition at 2.5 µg/mL: L1210, 2.5 mcg/ml; for inhibition at 5 µg/mL: L1210, 5 mcg/ml; for inhibition at 10 µg/mL: L1210, 10 mcg/ml; for inhibition at 20 µg/mL: L1210, 20 mcg/ml; for inhibition at 40 µg/mL: L1210, 40 mcg/ml; for inhibition at 80 µg/mL: L1210, 80 mcg/ml; for IC50: L1210, L-1210 cells, read-out: 50% inhibitory concentration; for inhibition at 1.25 µg/mL: L1210, 1.25 mcg/ml. On the procedure: DBA/2 mice were implanted with 10^5 mouse leukemia L-1210 cells. The ascites collected asceptically from the mice after 4 days of feeding was washed three times with physiological saline to obtain L-1210 cells, which was then suspended in RPMI 1640 culture medium [G. E. Moore, Journal of the American Medical Association, Vol. 199, 519 (1967); H. J. Morton, In Vitro, Vol. 6, 89 (1970)] to which 10% fetal calf serum and 5 μM 2-mercaptoethanol had been added, and the resulting suspension was diluted to 5×10^4 L-1210 cells per 0.9 ml. A microplate carrying 0.9 ml of the cell suspension and 0.1 ml of the culture medium containing the sample being tested was kept in a carbon dioxide incubator at 37° C. After 48 hours of cultivation, the number of cells was measured by means of a Coulter Counter (Coulter Electronics, Inc., U.S.A.) to obtain the growth inhibition (%)=(1--T/C )×100=[1-(number of grown cells in medium containing sample/(number of grown cells in control medium)]×100. The 50% growth inhibitory concentration was calculated from the values of growth inhibition at varied sample concentrations. The results of tests on typical compounds of this invention for the growth inhibition of L-1210 cells were as shown in Table 6.

Data set [2] is described as follows: acute toxicity in mice (single intraperitoneal administration). The note with it: mouse, in vivo, ip; mice, single i.p.; read-out: LD50 (median lethal dose on single administration). On the procedure:
(§1) In Table 8 median lethal doses (LD50) of typical compounds of this invention are shown, measured in mice upon single intraperitoneal administration, as well as maximum tolerated doses in terms of total dose when a fixed amount per unit body weight was administered intraperitoneally to mice once a day for 6 consecutive days.
*Median lethal dose on single administration.

Data set [3] in a line: cumulative toxicity in mice (maximum tolerated dose, once a day for 6 consecutive days). The note with it: mouse, in vivo, ip, i.p. once a day for 6 consecutive days, total dose, read-out: Maximum Tolerated Dose (total dose not causing death). On the procedure:
as §1
**Maximum value of the total dose not causing death when a fixed amount
per unit body weight is administered to mice once a day for 6 consecutive

The next data set deals with mouse leukemia L-1210. Nature of the data set: therapeutic effect on implanted cancer in mice (L-1210, survival over 30 days). The format is in vivo, mouse (BDF1). The note with it: L1210, ip, 720 h, 6 days; for responders at 0.2 mg/kg / response vs control in vivo at 0.2 mg/kg: 0.20 mg/kg/day i.p.; for responders at 0.39 mg/kg / response vs control in vivo at 0.39 mg/kg: 0.39 mg/kg/day i.p.; for responders at 0.78 mg/kg / response vs control in vivo at 0.78 mg/kg: 0.78 mg/kg/day i.p.; for responders at 1.56 mg/kg / response vs control in vivo at 1.56 mg/kg: 1.56 mg/kg/day i.p.; for responders at 3.13 mg/kg / response vs control in vivo at 3.13 mg/kg: 3.13 mg/kg/day i.p.; for responders at 6.25 mg/kg / response vs control in vivo at 6.25 mg/kg: 6.25 mg/kg/day i.p.; for responders at 12.5 mg/kg / response vs control in vivo at 12.5 mg/kg: 12.5 mg/kg/day i.p. The source says: BDF1 strain male mice (5 weeks old) were each inoculated intraperitoneally with 10^5 mouse leukemia L-1210 cells and treated once a day by intraperitoneal injection with a test compound dissolved in physiological saline for 6 consecutive days beginning from the day of inoculation. The mice were then observed for 30 days to determine the rate of prolongation of survival period=100×T/C=100×(average survival days of treated group)/(average survival days of control group).

Where [4] appears, read: read-out: Growth inhibition (%), (1-T/C) × 100.
Setting [5] is: read-out: Number of mice survived for 30 days (converted).
Setting [6] is: read-out: Prolongation of survival period (%), T/C × 100.

On to `CCOC(NC(=O)CCCCCCNC(=N)N)C(=O)NCCCCNCCCN` (stereo not shown) [Compound 12, N-[4-(3-aminopropyl)aminobutyl]-2-(7-guanidinoheptanamido)-2-ethoxyethanamide], for which, in data set [1] (setting [4]), the inhibition at 2.5 µg/mL came out at 21.5%, the inhibition at 5 µg/mL was 31.1%, the inhibition at 10 µg/mL was 38.4% and the inhibition at 20 µg/mL amounted to 47.3%. For the same molecule, in data set [1] (setting [4]), the inhibition at 40 µg/mL came to 58.6% and the inhibition at 80 µg/mL was determined as 73.5%. Moreover, the IC50 in data set [1] amounted to 21 µg/mL (≈ 50.5 µM). Also, the LD50 in data set [2] lay in the range of 12.5 to 25 mg/kg. Further, the MTD in data set [3] is > 75 mg/kg.
As to `N=C(N)NCCCCCCC=CC(=O)NC(O)C(=O)NCCCCNCCCN` (stereo not shown) [Compound 18, N-[4-(3-aminopropyl)aminobutyl]-2-(9-guanidino-2-nonenamido)-2-hydroxyethanamide], in data set [1] (setting [4]), the inhibition at 5 µg/mL was determined as 15.7%, the inhibition at 10 µg/mL was 20.9%, the inhibition at 20 µg/mL was found to be 29.5% and the inhibition at 40 µg/mL stood at 32.3%. The inhibition at 80 µg/mL in data set [1] (setting [4]) amounted to 47.8%. In data set [1], the IC50 amounted to 90 µg/mL (≈ 218 µM). Moreover, in the data set on mouse leukemia L-1210 (0.10 mg/kg/day i.p., read-out: Number of mice survived for 30 days), the responders at 0.1 mg/kg is 0%. Further, in the data set with mouse leukemia L-1210 (0.10 mg/kg/day i.p., read-out: Prolongation of survival period (%), T/C × 100), the response vs control in vivo at 0.1 mg/kg came to 129%. In the data set on mouse leukemia L-1210 (setting [5]), the responders at 0.2 mg/kg was 0%, the responders at 0.39 mg/kg is 0%, the responders at 0.78 mg/kg is 0% and the responders at 1.56 mg/kg was 75%. Besides, in the data set with mouse leukemia L-1210 (setting [5]), the responders at 3.13 mg/kg is 100%, the responders at 6.25 mg/kg is 50% and the responders at 12.5 mg/kg is 0%. In the data set with mouse leukemia L-1210 (setting [6]), the response vs control in vivo at 0.2 mg/kg was determined as 136%, the response vs control in vivo at 0.39 mg/kg was found to be 157%, the response vs control in vivo at 0.78 mg/kg amounted to 200% and the response vs control in vivo at 1.56 mg/kg is > 429%. In the data set on mouse leukemia L-1210 (setting [6]), the response vs control in vivo at 3.13 mg/kg was > 429%, the response vs control in vivo at 6.25 mg/kg was > 350% and the response vs control in vivo at 12.5 mg/kg was determined as 0%. The LD50 in data set [2] lay within 6.25 to 12.5 mg/kg. In addition, the MTD in data set [3] is > 37.5 mg/kg.
In the case of `N=C(N)NCCCCCC(=O)NC(O)C(=O)NCCCCNCCCN` (stereo not shown) [Compound 3, N-[4-(3-aminopropyl)aminobutyl]-2-(6-guanidinohexanamido)-2-hydroxyethanamide], in data set [1] (setting [4]), the inhibition at 1.25 µg/mL turned out to be 20.6%, the inhibition at 2.5 µg/mL amounted to 36.7%, the inhibition at 5 µg/mL came to 64.2% and the inhibition at 10 µg/mL turned out to be 81.6%. The inhibition at 20 µg/mL in data set [1] (setting [4]) stood at 86.7%. For the same molecule, the IC50 in data set [1] came out at 3.7 µg/mL (≈ 9.91 µM). In addition, the LD50 in data set [2] was > 50 mg/kg. Also, the MTD in data set [3] was > 300 mg/kg.
Consider `N=C(N)NCCCCCC(O)CC(=O)NC(O)C(=O)NCCCCNCCCN` (stereo not shown) [Compound 20, N-[4-(3-aminopropyl)aminobutyl]-2-(8-guanidino-3-hydroxyoctanamido)-2-hydroxyethanamide], for which, in data set [1] (setting [4]), the inhibition at 1.25 µg/mL came to 17.2%, the inhibition at 2.5 µg/mL was 20.1%, the inhibition at 5 µg/mL came to 28.9% and the inhibition at 10 µg/mL turned out to be 30.7%. Further, the inhibition at 20 µg/mL in data set [1] (setting [4]) came out at 45.7%. In addition, the IC50 in data set [1] turned out to be 27 µg/mL (≈ 64.7 µM). Moreover, the LD50 in data set [2] is > 50 mg/kg. The MTD in data set [3] was > 300 mg/kg.
Take `COC(NC(=O)C=CCCCCNC(=N)N)C(=O)NCCCCNCCCN` (stereo not shown) [Compound 19, N-[4-(3-aminopropyl)aminobutyl]-2-(7-guanidino-2-heptenamido)-2-methoxyethanamide]: in data set [1] (setting [4]), the inhibition at 1.25 µg/mL amounted to 29.9%, the inhibition at 2.5 µg/mL turned out to be 32.2%, the inhibition at 5 µg/mL came to 46.4% and the inhibition at 10 µg/mL came to 56.4%. Further, in data set [1] (setting [4]), the inhibition at 20 µg/mL came out at 75.6%, the inhibition at 40 µg/mL was found to be 85.4% and the inhibition at 80 µg/mL came to 93.1%. For the same molecule, the IC50 in data set [1] is 6.3 µg/mL (≈ 15.8 µM). Also, in the data set on mouse leukemia L-1210 (setting [5]), the responders at 0.2 mg/kg is 0%, the responders at 0.39 mg/kg is 0%, the responders at 0.78 mg/kg was 0% and the responders at 1.56 mg/kg was 50%. In the data set on mouse leukemia L-1210 (setting [5]), the responders at 3.13 mg/kg is 50%, the responders at 6.25 mg/kg is 75% and the responders at 12.5 mg/kg is 50%. In addition, in the data set with mouse leukemia L-1210 (setting [6]), the response vs control in vivo at 0.2 mg/kg came to 100%, the response vs control in vivo at 0.39 mg/kg worked out at 107%, the response vs control in vivo at 0.78 mg/kg is 164% and the response vs control in vivo at 1.56 mg/kg is > 350%. In addition, in the data set on mouse leukemia L-1210 (setting [6]), the response vs control in vivo at 3.13 mg/kg is > 321%, the response vs control in vivo at 6.25 mg/kg was > 429% and the response vs control in vivo at 12.5 mg/kg was > 364%. The responders at 25 mg/kg in the data set with mouse leukemia L-1210 (25 mg/kg/day i.p., read-out: Number of mice survived for 30 days (converted)) was 0%. For the same molecule, the response vs control in vivo at 25 mg/kg in the data set on mouse leukemia L-1210 (25 mg/kg/day i.p., read-out: Prolongation of survival period (%), T/C × 100) was 0%. In addition, in data set [2], the LD50 fell in the range of 12.5 to 25 mg/kg. Also, the MTD in data set [3] is > 75 mg/kg.
In the case of `COC(NC(=O)CCCCCNC(=N)N)C(=O)NCCCCNCCCN` (stereo not shown) [Compound 8, N-[4-(3-aminopropyl)aminobutyl]-2-(6-guanidinohexanamido)-2-methoxyethanamide], in data set [1] (setting [4]), the inhibition at 5 µg/mL turned out to be 33.2%, the inhibition at 10 µg/mL amounted to 38.1%, the inhibition at 20 µg/mL was found to be 46.8% and the inhibition at 40 µg/mL stood at 53.5%. For the same molecule, in data set [1] (setting [4]), the inhibition at 80 µg/mL stood at 66.3%. Moreover, the inhibition at 160 µg/mL in data set [1] (L1210, 160 mcg/ml, read-out: Growth inhibition (%), (1-T/C) × 100) was found to be 88.2%. Also, in data set [1], the IC50 was found to be 28 µg/mL (≈ 72.3 µM). In addition, the LD50 in data set [2] lay within 25 to 50 mg/kg. Moreover, in data set [3], the MTD is > 150 mg/kg.
For the molecule `N=C(N)NCCCCCC=CC(=O)NC(O)C(=O)NCCCCNCCCN` (stereo not shown) [Compound 17, N-[4-(3-aminopropyl)aminobutyl]-2-(8-guanidino-2-octenamido)-2-hydroxyethanamide], in data set [1] (setting [4]), the inhibition at 1.25 µg/mL was found to be 2.1%, the inhibition at 2.5 µg/mL worked out at 4.5%, the inhibition at 5 µg/mL was 13.3% and the inhibition at 10 µg/mL worked out at 16.5%. Also, in data set [1] (setting [4]), the inhibition at 20 µg/mL stood at 33.7% and the inhibition at 40 µg/mL worked out at 52.5%. In addition, the IC50 in data set [1] is 70 µg/mL (≈ 175 µM). The LD50 in data set [2] fell in the range of 12.5 to 25 mg/kg. For the same molecule, the MTD in data set [3] is > 75 mg/kg.
For `N=C(N)NCCCC(=O)NC(O)C(=O)NCCCCNCCCN` (stereo not shown) [Compound 1, N-[4-(3-aminopropyl)aminobutyl]-2-(4-guanidinobutanamido)-2-hydroxyethanamide], in data set [1] (setting [4]), the inhibition at 2.5 µg/mL stood at 52.2%, the inhibition at 5 µg/mL is 89.3%, the inhibition at 10 µg/mL stood at 101% and the inhibition at 20 µg/mL amounted to 100%. For the same molecule, the IC50 in data set [1] worked out at 2.4 µg/mL (≈ 6.95 µM). The LD50 in data set [2] is > 50 mg/kg. For the same molecule, the MTD in data set [3] was > 300 mg/kg.
